# Experimental data reported in publication PMC10376326, “Novel Acylselenourea Derivatives: Dual Molecules with Anticancer and Radical Scavenging Activity” (Antioxidants, 2023).
# System: MDA-MB-231, HT-29, HTB-54 and DU-145 cancer cell lines
# Experiment: MTT cell viability assay, statements over the panel of cancer cell lines
# Format: cell-based, human
# Details: 10 µM, over the four cancer cell lines
# Experimental: (§1) Cell lines were purchased from the American Type Culture Collection (ATCC). Cell lines MDA-MB-231, HTB-54, DU-145, and BEAS-2B were cultured in RPMI 1640 medium (Gibco, Thermo Fisher Scientific, Gaithersburg, MD, USA) supplemented with 10% fetal bovine serum (FBS; Gibco), 100 units/mL penicillin, and […] streptomycin (Gibco). HT-29 cell line was grown in McCoy’s 5A (Gibco), 10% FBS, 100 units/mL penicillin, and 100 μg/mL streptomycin. Cells were maintained at 37 °C and 5% CO2. The culture medium was changed every three days.
# (§2) The cell viability of each compound was measured by MTT colorimetric assay. Each compound was dissolved in DMSO at a concentration of 0.01 M. Each compound was tested at two different concentrations (10 and 50 µM) in MDA-MB-231 (breast), HTB-54 (lung), DU-145 (prostate), and HT-29 (colon) human cancer cell lines. Serial dilutions were prepared with supplemented culture medium. […] IC50 and selectivity indexes (SI) were determined.
# (§3) Briefly, 1 × 10^4 tumor cells per well were grown in 96-well plates for 24 h. Then, these cells were incubated for 48 h with either DMSO (control) or a different concentration of each of the tested compounds. The cell viability was determined by adding 20 μL of MTT two hours and a half before the termination point. After this time, the culture medium was removed. The resulting formazan crystals were dissolved in 50 μL of DMSO, and the absorbance was measured at 570 nm. Results are expressed as % cell growth. The data were obtained from at least three independent experiments performed in quadruplicate.
row,SMILES,cell growth %
1,"C=CCNC(=[Se])NC(=O)c1ccco1 [Compound 1.II, N-(allylcarbamoselenoyl)furan-2-carboxamide]",54.8–95.0%

# System: MDA-MB-231 (breast) cancer cell line
# Experiment: MTT cell viability assay, MDA-MB-231
# Format: cell-based, human
# Details: Homo sapiens, MDA-MB-231, 48 h, read-out: Cell growth %, MDA-MB-231, 10 µM, 48 h, MTT
# Experimental: as §1, §2, §3
row,SMILES,activity at 10 µM
1,"C=CCNC(=[Se])NC(=O)c1ccco1 [Compound 1.II, N-(allylcarbamoselenoyl)furan-2-carboxamide]",80.4 ± 8.4%

# Same assay, conditions: Homo sapiens, MDA-MB-231, 48 h, read-out: Cell growth %, MDA-MB-231, 50 µM, 48 h, MTT
row,SMILES,activity at 50 µM
1,"C=CCNC(=[Se])NC(=O)c1ccco1 [Compound 1.II, N-(allylcarbamoselenoyl)furan-2-carboxamide]",14.5 ± 7.9%

# System: DU-145 (prostate) cancer cell line
# Experiment: MTT cell viability assay, DU-145
# Format: cell-based, human
# Details: Homo sapiens, DU-145, 48 h, read-out: Cell growth %, DU-145, 10 µM, 48 h, MTT
# Experimental: as §1, §2, §3
row,SMILES,activity at 10 µM
1,"C=CCNC(=[Se])NC(=O)c1ccco1 [Compound 1.II, N-(allylcarbamoselenoyl)furan-2-carboxamide]",81.5 ± 13.5%

# Same assay, conditions: Homo sapiens, DU-145, 48 h, read-out: Cell growth %, DU-145, 50 µM, 48 h, MTT
row,SMILES,activity at 50 µM
1,"C=CCNC(=[Se])NC(=O)c1ccco1 [Compound 1.II, N-(allylcarbamoselenoyl)furan-2-carboxamide]",10.6 ± 5.7%

# System: HTB-54 (lung) cancer cell line
# Experiment: MTT cell viability assay, HTB-54
# Format: cell-based, human
# Details: Homo sapiens, HTB-54, 48 h, read-out: Cell growth %, HTB-54, 10 µM, 48 h, MTT
# Experimental: as §1, §2, §3
row,SMILES,activity at 10 µM
1,"C=CCNC(=[Se])NC(=O)c1ccco1 [Compound 1.II, N-(allylcarbamoselenoyl)furan-2-carboxamide]",54.9 ± 11.2%

# Same assay, conditions: Homo sapiens, HTB-54, 48 h, read-out: Cell growth %, HTB-54, 50 µM, 48 h, MTT
row,SMILES,activity at 50 µM
1,"C=CCNC(=[Se])NC(=O)c1ccco1 [Compound 1.II, N-(allylcarbamoselenoyl)furan-2-carboxamide]",11.1 ± 5.2%

# System: not listed separately
# Experiment: DPPH radical scavenging assay
# Format: biochemical
# Details: 0.003 mg/mL, 0 min
# Experimental: Different methods are available to quantify the antioxidant capacity of natural or novel molecules. Notable among these are the ABTS^•+ and DPPH^• methods, which measure the quenching efficiency in vitro for known concentrations of preformed radicals. In this work, the DPPH^• colorimetric assay was carried out. Measurements were recorded on a BioTeck PowerWave XS spectrophotometer (BioTeck Instruments, Winooski, VT, USA) and data were collected using KCJunior v.1.41. software (BioTeck Instruments, Winooski, VT, USA). Compounds with potent activity were selected to further determine their protective effect against ROS-induced cell death caused by H2O2.
# DPPH colorimetric assay was performed to determine the in vitro radical scavenging activity of the acylselenourea derivatives. DPPH assay was performed as described by Svinyarov. For each acylselenourea, a stock solution of 1 mg/mL in dimethyl sulfoxide (DMSO) was made, and these solutions were used to prepare the different concentrations employed in the assay. The compounds were tested at two different concentrations (0.003 and 0.03 mg/mL). Intermediate solutions were prepared in methanol and a volume of 100 µL of each was added to each well of the plate. Then, 100 µL of DPPH^• (previously prepared at a concentration of 0.04 mg/mL in methanol and preserved in the dark) was added to the previous methanolic acylselenourea solutions. The discoloration of the purple radical to the yellow reduced form was followed at 517 nm at different time points (0, 5, 15, 30, 60, 90, and 120 min). Ascorbic acid and trolox were used as positive controls. All measurements were carried out in triplicate. Results are expressed as the percentage of the radicals scavenged, calculated using the following formula: (1) % DPPH radical scavenging=Acontrol - Asample/Acontrol × 100 where Acontrol refers to the absorbance of the negative control and Asample refers to the absorbance of the tested compounds. Results are expressed as percentage of DPPH radical scavenging ± SD.
row,SMILES,inhibition
1,"C=CCNC(=[Se])NC(=O)c1ccco1 [Compound 1.II, N-(allylcarbamoselenoyl)furan-2-carboxamide]",1.7 ± 0.3%

# Same assay, conditions: 0.003 mg/mL, 5 min
row,SMILES,inhibition
1,"C=CCNC(=[Se])NC(=O)c1ccco1 [Compound 1.II, N-(allylcarbamoselenoyl)furan-2-carboxamide]",5.4 ± 0.5%

# Same assay, conditions: 0.003 mg/mL, 15 min
row,SMILES,inhibition
1,"C=CCNC(=[Se])NC(=O)c1ccco1 [Compound 1.II, N-(allylcarbamoselenoyl)furan-2-carboxamide]",8.8 ± 0.9%

# Same assay, conditions: 0.003 mg/mL, 30 min
row,SMILES,inhibition
1,"C=CCNC(=[Se])NC(=O)c1ccco1 [Compound 1.II, N-(allylcarbamoselenoyl)furan-2-carboxamide]",12.1 ± 1.2%

# Same assay, conditions: 0.003 mg/mL, 60 min
row,SMILES,inhibition
1,"C=CCNC(=[Se])NC(=O)c1ccco1 [Compound 1.II, N-(allylcarbamoselenoyl)furan-2-carboxamide]",16.5 ± 1.5%

# Same assay, conditions: 0.003 mg/mL, 90 min
row,SMILES,inhibition
1,"C=CCNC(=[Se])NC(=O)c1ccco1 [Compound 1.II, N-(allylcarbamoselenoyl)furan-2-carboxamide]",19.5 ± 1.7%

# Same assay, conditions: 0.003 mg/mL, 120 min
row,SMILES,inhibition
1,"C=CCNC(=[Se])NC(=O)c1ccco1 [Compound 1.II, N-(allylcarbamoselenoyl)furan-2-carboxamide]",21.1 ± 1.4%

# Same assay, conditions: 0.03 mg/mL
row,SMILES,time to reach the highest DPPH inhibition
1,"C=CCNC(=[Se])NC(=O)c1ccco1 [Compound 1.II, N-(allylcarbamoselenoyl)furan-2-carboxamide]",60 min

# Same assay, conditions: 0.03 mg/mL, 0 min
row,SMILES,inhibition
1,"C=CCNC(=[Se])NC(=O)c1ccco1 [Compound 1.II, N-(allylcarbamoselenoyl)furan-2-carboxamide]",16 ± 1.9%

# Same assay, conditions: 0.03 mg/mL, 5 min
row,SMILES,inhibition
1,"C=CCNC(=[Se])NC(=O)c1ccco1 [Compound 1.II, N-(allylcarbamoselenoyl)furan-2-carboxamide]",45.2 ± 5.1%

# Same assay, conditions: 0.03 mg/mL, 15 min
row,SMILES,inhibition
1,"C=CCNC(=[Se])NC(=O)c1ccco1 [Compound 1.II, N-(allylcarbamoselenoyl)furan-2-carboxamide]",65.4 ± 4.1%

# Same assay, conditions: 0.03 mg/mL, 30 min
row,SMILES,inhibition
1,"C=CCNC(=[Se])NC(=O)c1ccco1 [Compound 1.II, N-(allylcarbamoselenoyl)furan-2-carboxamide]",85.4 ± 4.9%

# Same assay, conditions: 0.03 mg/mL, 60 min
row,SMILES,inhibition
1,"C=CCNC(=[Se])NC(=O)c1ccco1 [Compound 1.II, N-(allylcarbamoselenoyl)furan-2-carboxamide]",96.5 ± 0.6%

# Same assay, conditions: 0.03 mg/mL, 120 min
row,SMILES,inhibition
1,"C=CCNC(=[Se])NC(=O)c1ccco1 [Compound 1.II, N-(allylcarbamoselenoyl)furan-2-carboxamide]",96.5 ± 0.5%

# Same assay, conditions: acylselenourea analogs, 0.03 mg/mL, 90 min
row,SMILES,DPPH Inhibitory%
1,"C=CCNC(=[Se])NC(=O)c1ccco1 [Compound 1.II, N-(allylcarbamoselenoyl)furan-2-carboxamide]",96.6 ± 0.6%

# System: HT-29 (colon) cancer cell line
# Experiment: MTT cell viability assay, HT-29
# Format: cell-based
# Details: Homo sapiens, HT-29, 48 h, HT-29, 10 µM, read-out: Cell growth %
# Experimental: as §1, §2, §3
row,SMILES,activity at 10 µM
1,"C=CCNC(=[Se])NC(=O)c1ccco1 [Compound 1.II, N-(allylcarbamoselenoyl)furan-2-carboxamide]",95 ± 15.7%

# Same assay, conditions: Homo sapiens, HT-29, 48 h, HT-29, 50 µM, read-out: Cell growth %
row,SMILES,activity at 50 µM
1,"C=CCNC(=[Se])NC(=O)c1ccco1 [Compound 1.II, N-(allylcarbamoselenoyl)furan-2-carboxamide]",16.6 ± 5.3%
